Data: publication PMC5358098 (ACS chemical neuroscience, 2016)

Legend:
[1] = target: CB1R (Mus musculus, UniProt P47746)
[2] = target: CB1R (Homo sapiens, UniProt P21554); experiment: cell-based; type: cell-based; details: read-out: Emax (% cAMP inhibition), agonist alone
Chain of CB1R (Homo sapiens, UniProt P21554) (P21554 whole entry): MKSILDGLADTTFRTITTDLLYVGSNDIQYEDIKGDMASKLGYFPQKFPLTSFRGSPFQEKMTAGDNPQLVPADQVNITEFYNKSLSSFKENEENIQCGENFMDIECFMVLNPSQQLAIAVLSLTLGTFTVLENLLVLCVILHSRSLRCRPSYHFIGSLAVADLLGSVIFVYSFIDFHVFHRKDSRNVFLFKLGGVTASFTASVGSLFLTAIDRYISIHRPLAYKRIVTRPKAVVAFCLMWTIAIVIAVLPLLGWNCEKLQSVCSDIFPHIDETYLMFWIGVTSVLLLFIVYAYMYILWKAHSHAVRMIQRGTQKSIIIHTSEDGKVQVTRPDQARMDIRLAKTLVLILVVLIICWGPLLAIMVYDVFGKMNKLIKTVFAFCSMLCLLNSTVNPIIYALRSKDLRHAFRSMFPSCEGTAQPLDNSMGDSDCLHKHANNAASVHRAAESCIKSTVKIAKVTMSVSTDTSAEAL

Chain of CB1R (Mus musculus, UniProt P47746) (P47746 whole entry): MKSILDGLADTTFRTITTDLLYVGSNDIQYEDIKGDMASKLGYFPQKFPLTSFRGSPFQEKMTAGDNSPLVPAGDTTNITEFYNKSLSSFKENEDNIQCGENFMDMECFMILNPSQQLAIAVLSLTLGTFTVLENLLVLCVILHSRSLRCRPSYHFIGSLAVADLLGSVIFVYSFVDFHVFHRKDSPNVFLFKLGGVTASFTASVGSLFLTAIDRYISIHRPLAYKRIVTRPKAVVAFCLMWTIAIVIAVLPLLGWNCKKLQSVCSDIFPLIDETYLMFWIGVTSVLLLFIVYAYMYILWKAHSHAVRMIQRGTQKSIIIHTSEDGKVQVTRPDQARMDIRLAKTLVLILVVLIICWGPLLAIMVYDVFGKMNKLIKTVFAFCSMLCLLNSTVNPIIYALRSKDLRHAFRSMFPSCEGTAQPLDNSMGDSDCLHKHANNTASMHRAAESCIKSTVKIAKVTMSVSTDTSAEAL

**Q.** With `CCCCCCC(C)(C)c1ccc([C@@H]2C[C@H](O)CC[C@H]2CCCO)c(O)c1` [CP55,940, 2-[(1R,2R,5R)-5-hydroxy-2-(3-hydroxypropyl)cyclohexyl]-5-(2-methyloctan-2-yl)phenol] as the molecule, how does the “CB1R internalization, agonist alone” value [1] read?
**A.** Its value is “sustained CB1R internalization beginning at 30 min”.

**Q.** What about the Emax [2] of the same molecule?
**A.** The Emax was 106 ± 11.4%.
